# Source: ChEMBL document CHEMBL4368915, “Synthesis and Biological Investigation of Phenothiazine-Based Benzhydroxamic Acids as Selective Histone Deacetylase 6 Inhibitors” (J Med Chem, 2019)
# The source made the active and inactive calls. The calls are words filed in the database; no cut-off is given here.
# How the values were obtained:
# [1] = biological target: T1, Protein deacetylase HDAC6 (Homo sapiens, UniProt Q9UBN7)
# T1 sequence (Q9UBN7 whole entry): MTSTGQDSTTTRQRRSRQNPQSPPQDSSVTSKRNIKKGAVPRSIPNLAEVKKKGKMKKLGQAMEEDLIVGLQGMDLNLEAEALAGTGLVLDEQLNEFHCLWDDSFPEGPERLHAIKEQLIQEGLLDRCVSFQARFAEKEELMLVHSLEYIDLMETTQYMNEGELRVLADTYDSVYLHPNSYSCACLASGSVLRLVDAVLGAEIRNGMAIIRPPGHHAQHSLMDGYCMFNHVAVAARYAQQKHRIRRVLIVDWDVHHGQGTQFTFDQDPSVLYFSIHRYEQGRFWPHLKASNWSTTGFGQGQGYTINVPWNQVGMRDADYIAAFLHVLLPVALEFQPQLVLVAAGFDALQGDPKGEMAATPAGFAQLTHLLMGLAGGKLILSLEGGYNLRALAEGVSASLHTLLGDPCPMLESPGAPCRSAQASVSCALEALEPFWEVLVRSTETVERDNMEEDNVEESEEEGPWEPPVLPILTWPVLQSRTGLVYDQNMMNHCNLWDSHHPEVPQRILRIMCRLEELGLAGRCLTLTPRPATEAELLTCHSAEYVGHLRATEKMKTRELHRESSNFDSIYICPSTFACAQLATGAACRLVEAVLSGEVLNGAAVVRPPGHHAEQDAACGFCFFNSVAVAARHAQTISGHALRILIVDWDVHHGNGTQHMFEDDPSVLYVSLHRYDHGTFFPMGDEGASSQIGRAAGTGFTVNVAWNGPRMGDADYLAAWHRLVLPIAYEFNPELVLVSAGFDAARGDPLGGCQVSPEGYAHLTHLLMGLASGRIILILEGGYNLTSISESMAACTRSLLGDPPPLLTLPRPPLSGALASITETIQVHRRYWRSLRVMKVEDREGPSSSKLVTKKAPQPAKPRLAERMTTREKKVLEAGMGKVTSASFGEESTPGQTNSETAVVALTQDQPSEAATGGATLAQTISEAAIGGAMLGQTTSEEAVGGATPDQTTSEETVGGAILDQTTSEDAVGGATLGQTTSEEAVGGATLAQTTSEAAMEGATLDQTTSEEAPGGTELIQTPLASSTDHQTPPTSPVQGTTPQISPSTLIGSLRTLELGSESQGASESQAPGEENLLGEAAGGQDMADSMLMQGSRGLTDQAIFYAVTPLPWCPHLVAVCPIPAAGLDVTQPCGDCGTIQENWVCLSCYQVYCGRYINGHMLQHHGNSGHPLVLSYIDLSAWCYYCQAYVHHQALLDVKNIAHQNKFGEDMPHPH
# Histone deacetylase 1 = Histone deacetylase 1 (Homo sapiens, UniProt Q13547)
# Sequence of Histone deacetylase 1 (Q13547 whole entry): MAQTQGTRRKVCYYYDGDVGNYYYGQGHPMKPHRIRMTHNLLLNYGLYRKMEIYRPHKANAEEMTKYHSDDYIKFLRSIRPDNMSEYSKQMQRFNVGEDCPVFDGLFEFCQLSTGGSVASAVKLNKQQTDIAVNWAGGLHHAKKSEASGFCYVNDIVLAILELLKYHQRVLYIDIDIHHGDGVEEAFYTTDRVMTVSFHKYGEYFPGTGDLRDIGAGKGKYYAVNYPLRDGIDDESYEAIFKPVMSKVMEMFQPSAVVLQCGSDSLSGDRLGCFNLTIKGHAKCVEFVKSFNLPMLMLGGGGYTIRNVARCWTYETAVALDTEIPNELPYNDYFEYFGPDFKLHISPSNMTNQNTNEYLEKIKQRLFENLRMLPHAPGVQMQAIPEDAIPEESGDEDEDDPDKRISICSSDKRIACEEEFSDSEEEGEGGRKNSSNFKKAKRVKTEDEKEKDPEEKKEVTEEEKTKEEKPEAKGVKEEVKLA
# Histone deacetylase 8 = biological target: T2, Histone deacetylase 8 (Homo sapiens, UniProt Q9BY41)
# T2 sequence (Q9BY41 whole entry): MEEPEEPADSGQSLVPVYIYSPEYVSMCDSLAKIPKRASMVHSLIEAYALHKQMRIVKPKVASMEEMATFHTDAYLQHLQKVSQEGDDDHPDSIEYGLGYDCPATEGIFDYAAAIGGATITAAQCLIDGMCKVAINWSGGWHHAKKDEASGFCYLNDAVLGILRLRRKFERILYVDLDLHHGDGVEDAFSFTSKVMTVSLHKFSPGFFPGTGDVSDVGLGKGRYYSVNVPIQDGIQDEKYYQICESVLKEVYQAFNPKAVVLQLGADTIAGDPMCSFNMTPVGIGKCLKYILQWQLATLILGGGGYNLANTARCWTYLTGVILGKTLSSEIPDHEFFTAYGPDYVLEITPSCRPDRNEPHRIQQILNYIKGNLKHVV
# T-24 [2] = test: Antiproliferative activity against human T24 cells assessed as inhibition of cell proliferation at 10 to 100 uM after 72 hrs by CellTiter blue-reagent based assay; type: functional
# CYP2C19 = CYP2C19 (Homo sapiens, UniProt P33261); test: Inhibition of human CYP2C19 in human liver microsomes at 10 uM relative to control; type: ADME
# Sequence of CYP2C19 (P33261 whole entry): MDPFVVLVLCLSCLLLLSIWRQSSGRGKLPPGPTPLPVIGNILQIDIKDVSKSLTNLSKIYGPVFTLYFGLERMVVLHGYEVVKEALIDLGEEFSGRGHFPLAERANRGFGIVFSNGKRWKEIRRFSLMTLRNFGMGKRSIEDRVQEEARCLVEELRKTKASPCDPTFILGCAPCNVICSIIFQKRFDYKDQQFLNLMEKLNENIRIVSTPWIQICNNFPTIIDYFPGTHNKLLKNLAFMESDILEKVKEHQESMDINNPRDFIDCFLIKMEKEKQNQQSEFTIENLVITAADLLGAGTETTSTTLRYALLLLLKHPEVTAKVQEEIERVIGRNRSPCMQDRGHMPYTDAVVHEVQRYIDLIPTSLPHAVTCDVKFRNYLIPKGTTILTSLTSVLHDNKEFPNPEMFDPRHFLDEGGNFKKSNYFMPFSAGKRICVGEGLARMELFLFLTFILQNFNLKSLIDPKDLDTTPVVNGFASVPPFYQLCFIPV
# [3] = Half life in human liver microsomes at 2 uM by LC-MS/MS analysis; type: ADME, Microsome
# MDA-MB-231 [4] = test: Antiproliferative activity against human MDA-MB-231 cells assessed as inhibition of cell proliferation at 10 to 100 uM after 72 hrs by CellTiter blue-reagent based assay; type: functional
# CYP2D6 = CYP2D6 (Homo sapiens, UniProt P10635); test: Inhibition of human CYP2D6 in human liver microsomes at 10 uM relative to control; type: ADME
# Sequence of CYP2D6 (P10635 whole entry): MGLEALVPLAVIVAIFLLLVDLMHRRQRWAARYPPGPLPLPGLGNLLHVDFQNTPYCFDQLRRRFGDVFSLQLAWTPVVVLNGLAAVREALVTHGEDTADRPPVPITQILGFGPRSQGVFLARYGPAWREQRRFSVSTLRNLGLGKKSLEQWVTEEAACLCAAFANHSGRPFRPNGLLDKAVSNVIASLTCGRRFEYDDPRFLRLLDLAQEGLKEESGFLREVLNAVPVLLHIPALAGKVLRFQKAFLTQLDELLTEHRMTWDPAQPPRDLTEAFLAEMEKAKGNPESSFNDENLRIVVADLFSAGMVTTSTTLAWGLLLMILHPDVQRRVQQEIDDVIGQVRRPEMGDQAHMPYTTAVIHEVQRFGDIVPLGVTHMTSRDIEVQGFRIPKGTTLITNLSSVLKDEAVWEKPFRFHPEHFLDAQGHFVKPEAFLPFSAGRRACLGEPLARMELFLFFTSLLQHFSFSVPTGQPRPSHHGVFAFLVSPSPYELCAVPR
# [5] = Intrinsic clearance in human liver microsomes at 2 uM by LC-MS/MS analysis; type: ADME, Microsome
# CYP2C9 = CYP2C9 (Homo sapiens, UniProt P11712); test: Inhibition of human CYP2C9 in human liver microsomes at 10 uM relative to control; type: ADME
# Sequence of CYP2C9 (P11712 whole entry): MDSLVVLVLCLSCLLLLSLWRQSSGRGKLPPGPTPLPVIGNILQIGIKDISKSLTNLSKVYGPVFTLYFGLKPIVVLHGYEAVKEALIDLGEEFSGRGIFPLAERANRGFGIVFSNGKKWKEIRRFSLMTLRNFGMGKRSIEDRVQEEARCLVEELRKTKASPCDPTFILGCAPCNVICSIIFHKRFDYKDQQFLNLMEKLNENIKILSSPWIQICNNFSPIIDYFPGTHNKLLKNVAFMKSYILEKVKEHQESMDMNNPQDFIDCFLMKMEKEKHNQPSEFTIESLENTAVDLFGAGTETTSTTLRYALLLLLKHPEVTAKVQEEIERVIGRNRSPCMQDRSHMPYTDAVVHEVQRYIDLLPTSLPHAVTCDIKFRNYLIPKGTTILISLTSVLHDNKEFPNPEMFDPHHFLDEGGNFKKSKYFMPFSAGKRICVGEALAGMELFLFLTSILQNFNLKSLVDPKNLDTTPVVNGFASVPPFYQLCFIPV
# CYP1A2 = biological target: T3, CYP1A2 (Homo sapiens, UniProt P05177); test: Inhibition of human CYP1A2 in human liver microsomes at 10 uM relative to control; type: ADME
# T3 sequence (P05177 whole entry): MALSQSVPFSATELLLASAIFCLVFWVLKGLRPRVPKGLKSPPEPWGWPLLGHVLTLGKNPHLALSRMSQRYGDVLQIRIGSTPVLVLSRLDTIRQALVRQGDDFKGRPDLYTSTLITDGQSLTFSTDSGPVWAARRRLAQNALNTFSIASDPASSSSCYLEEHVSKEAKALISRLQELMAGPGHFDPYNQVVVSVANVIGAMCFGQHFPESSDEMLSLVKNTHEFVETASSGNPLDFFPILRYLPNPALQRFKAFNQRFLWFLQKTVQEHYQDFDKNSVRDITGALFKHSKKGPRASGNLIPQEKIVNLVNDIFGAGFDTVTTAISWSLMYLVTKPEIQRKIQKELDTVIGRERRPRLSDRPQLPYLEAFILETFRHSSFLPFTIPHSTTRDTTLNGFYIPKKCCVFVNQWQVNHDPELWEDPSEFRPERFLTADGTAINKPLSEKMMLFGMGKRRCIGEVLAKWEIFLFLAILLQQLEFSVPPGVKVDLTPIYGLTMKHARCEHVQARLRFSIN
# Huh-7 = test: Antiproliferative activity against human HuH7 cells assessed as inhibition of cell proliferation at 10 to 100 uM after 72 hrs by CellTiter blue-reagent based assay; type: functional
# HepaRG = test: (§1) Cytotoxicity against human HepaRG cells assessed as cell viability at 100 uM after 24 hrs by CellTiter blue-reagent based assay relative to control; conditions: heparg, 24 h, 100 µM
# [6] = biological target: Histone deacetylase 4 (Homo sapiens) (UniProt P56524); test: Inhibition of recombinant N-terminal GST/His-tagged human HDAC4 (627 to 1084 residues) expressed in baculovirus expression system at 10 uM using fluorogenic ZMTFAL as substrate incubated for 90 mins by fluorescence assay relative to control
# Sequence of Histone deacetylase 4 (Homo sapiens) (P56524 whole entry, the tested form may be a part): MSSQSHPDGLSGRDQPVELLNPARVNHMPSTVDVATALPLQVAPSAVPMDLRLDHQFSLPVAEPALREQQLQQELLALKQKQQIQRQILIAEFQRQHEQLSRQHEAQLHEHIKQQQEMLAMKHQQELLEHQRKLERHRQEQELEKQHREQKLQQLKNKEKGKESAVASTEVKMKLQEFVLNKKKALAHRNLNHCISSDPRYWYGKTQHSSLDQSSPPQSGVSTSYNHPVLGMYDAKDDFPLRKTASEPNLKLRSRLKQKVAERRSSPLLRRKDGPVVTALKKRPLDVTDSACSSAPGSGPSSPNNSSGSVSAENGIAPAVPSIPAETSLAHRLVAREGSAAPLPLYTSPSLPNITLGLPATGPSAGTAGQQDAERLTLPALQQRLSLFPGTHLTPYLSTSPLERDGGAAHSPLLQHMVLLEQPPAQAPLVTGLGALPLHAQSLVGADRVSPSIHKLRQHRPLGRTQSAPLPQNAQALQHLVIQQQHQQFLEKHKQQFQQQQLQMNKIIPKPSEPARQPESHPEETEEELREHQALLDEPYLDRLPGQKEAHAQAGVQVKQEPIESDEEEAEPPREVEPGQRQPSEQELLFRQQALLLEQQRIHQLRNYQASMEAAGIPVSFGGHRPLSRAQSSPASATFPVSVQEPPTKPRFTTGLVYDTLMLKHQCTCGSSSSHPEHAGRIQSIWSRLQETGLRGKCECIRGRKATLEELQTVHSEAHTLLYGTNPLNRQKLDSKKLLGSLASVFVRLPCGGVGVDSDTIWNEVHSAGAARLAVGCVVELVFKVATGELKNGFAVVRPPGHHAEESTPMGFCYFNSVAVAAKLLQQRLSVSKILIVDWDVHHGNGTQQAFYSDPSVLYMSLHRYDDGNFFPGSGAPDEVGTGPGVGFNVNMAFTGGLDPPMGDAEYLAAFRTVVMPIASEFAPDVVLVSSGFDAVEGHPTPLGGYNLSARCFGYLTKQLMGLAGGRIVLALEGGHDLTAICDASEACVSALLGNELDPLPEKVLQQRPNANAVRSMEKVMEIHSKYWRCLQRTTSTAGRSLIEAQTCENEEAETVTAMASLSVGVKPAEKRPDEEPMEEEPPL
# T-24 [7] = test: Synergistic potentiation of Bortezomib-induced antiproliferative activity against human T24 cells assessed as effect on cell index, at 1 uM incubated for 24 hrs by cell impedance based assay; type: functional
# [8] = Stability in human liver microsomes assessed as compound remaining at 2 uM measured up to 20 mins by LC-MS/MS analysis; type: ADME, Microsome
# [9] = Drug level in human liver microsomes treated with 2 uM 4-[(10H-Phenothiazin-10-yl)methyl]-N-hydroxybenzamide assessed as compound formation after 40 mins by LC-MS/MS analysis; type: ADME, Microsome
# [10] = Drug metabolism in human liver microsomes assessed as N-Hydroxy-4-[(5-oxido-10H-Phenothiazin-10-yl)methyl]-benzamide formation at 2 uM after 40 mins by LC-MS/MS analysis; type: ADME, Microsome
# [11] = Drug metabolism in human liver microsomes assessed as 4-[(5,5-Dioxido-10H-phenothiazin-10-yl)methyl]-N-hydroxybenzamide formation at 2 uM after 40 mins by LC-MS/MS analysis; type: ADME, Microsome
# [12] = Stability in human liver microsomes assessed as compound remaining at 2 uM after 40 mins by LC-MS/MS analysis; type: ADME, Microsome; conditions: read-out: Stability
# CYP3A4 = CYP3A4 (Homo sapiens, UniProt P08684); test: Inhibition of human CYP3A4 in human liver microsomes at 10 uM relative to control; type: ADME
# Sequence of CYP3A4 (P08684 whole entry): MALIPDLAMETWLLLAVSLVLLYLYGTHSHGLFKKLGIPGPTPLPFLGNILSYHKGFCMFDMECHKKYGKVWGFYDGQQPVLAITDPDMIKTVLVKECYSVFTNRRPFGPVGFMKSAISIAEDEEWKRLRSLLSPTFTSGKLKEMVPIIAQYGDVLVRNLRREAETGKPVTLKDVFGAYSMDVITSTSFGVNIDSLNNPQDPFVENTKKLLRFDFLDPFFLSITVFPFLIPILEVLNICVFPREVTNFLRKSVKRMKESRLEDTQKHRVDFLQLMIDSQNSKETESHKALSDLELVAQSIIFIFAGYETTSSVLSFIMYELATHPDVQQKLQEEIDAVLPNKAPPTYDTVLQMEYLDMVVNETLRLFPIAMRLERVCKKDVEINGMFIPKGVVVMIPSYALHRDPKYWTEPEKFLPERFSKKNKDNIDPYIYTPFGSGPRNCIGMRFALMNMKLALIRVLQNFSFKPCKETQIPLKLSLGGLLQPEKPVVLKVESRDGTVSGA
# [13] = biological target: T4, Histone deacetylase 8 (Homo sapiens) (UniProt Q9BY41); test: Inhibition of recombinant human HDAC8 expressed in baculovirus expression system at 1 uM using fluorogenic Arg-His-Lys(Ac)-Lys(Ac) as substrate incubated for 90 mins by fluorescence assay
# T4 sequence (whole entry): T2 sequence (Q9BY41 whole entry)
# MDA-MB-231 [14] = test: Induction of apoptosis in human MDA-MB-231 cells at 1 to 10 uM after 48 hrs by propidium iodide-staining based FACS analysis; type: functional, cell-based
# MCF7 = test: Antiproliferative activity against human MCF7 cells after 72 hrs by CellTiter blue-reagent based assay; type: functional, cell-based
# THP-1 = test: Antiproliferative activity against human THP1 cells after 72 hrs by CellTiter blue-reagent based assay; type: functional, cell-based
# HL-60 = test: Antiproliferative activity against human HL60 cells after 72 hrs by CellTiter blue-reagent based assay; type: functional, cell-based
# T-24 [15] = test: Induction of apoptosis in human T24 cells at 1 to 10 uM after 48 hrs by propidium iodide-staining based FACS analysis; type: functional, cell-based
# [16] = as §1; conditions: HepaRG cells, read-out: Activity
compound,measurement,setting,value
O=C(NO)c1ccc(CN2N=CC=C3Sc4ccccc4N=C32)cc1,IC50,[1],19 nM
O=C(NO)c1ccc(CN2c3ccccc3Sc3ccc(Cl)cc32)cc1,IC50,[1],12 nM
same,IC50,Histone deacetylase 1,2950 nM
CCSc1ccc2c(c1)N(Cc1ccc(C(=O)NO)cc1)c1ccccc1S2,IC50,[1],31 nM
same,IC50,Histone deacetylase 1,7200 nM
O=C(NO)c1ccc(N2c3ccccc3Sc3ccccc32)cc1,IC50,[1],2670 nM
COc1ccc2c(c1)N(Cc1ccc(C(=O)NO)cc1)c1ccccc1S2,IC50,[1],10 nM
same,IC50,Histone deacetylase 1,2070 nM
O=C(CCCCCCC(=O)Nc1ccc([C@H]2O[C@@H](CSc3nc(-c4ccccc4)c(-c4ccccc4)o3)C[C@@H](c3ccc(CO)cc3)O2)cc1)NO [TUBACIN],IC50,Histone deacetylase 1,1010 nM
O=C(NO)c1ccc(CN2c3ccncc3Sc3ccncc32)cc1,IC50,[1],9 nM
O=C(NO)c1ccc(CCN2c3ccccc3Sc3ccccc32)cc1,IC50,[1],136 nM
O=C(NO)c1ccc(CN2c3ccccc3Sc3ccncc32)cc1,IC50,[1],7 nM
O=C(NO)c1ccc(CN2c3ccccc3Sc3cccc(Cl)c32)cc1,IC50,[1],16 nM
same,IC50,Histone deacetylase 1,5760 nM
O=C(NO)c1ccc(CN2c3ccccc3Sc3ccnnc32)cc1,IC50,[1],11 nM
O=C(NO)c1ccc(CN2c3ccccc3Sc3cccnc32)cc1,IC50,Histone deacetylase 8,3100 nM
same,inhibition,T-24 [2],Active
same,inhibition at 10 µM,CYP2C19,27.7%
same,t1/2,[3],2.47 h
same,inhibition,MDA-MB-231 [4],Active
same,inhibition at 10 µM,CYP2D6,12%
same,CLH,[5],11 µL/min/mg
same,inhibition at 10 µM,CYP2C9,3.4%
same,inhibition at 10 µM,CYP1A2,15.2%
same,inhibition,Huh-7,Active
same,Activity,HepaRG,Non-Toxic
same,inhibition,[6],< 20%
same,Activity,T-24 [7],inactive
same,Stability,[8],Stable
same,IC50,Histone deacetylase 1,2690 nM
O=C(NO)c1ccc(CN2c3ccccc3[S+]([O-])c3ccccc32)cc1,IC50,[1],77 nM
same,Drug uptake,[9],Active
same,IC50,Histone deacetylase 1,6810 nM
O=C(NO)c1ccc(CN2c3ccccc3Sc3ccccc32)cc1,Drug metabolism,[10],Metabolite_Detected
same,IC50,Histone deacetylase 8,1480 nM
same,inhibition at 10 µM,CYP2C19,36.4%
same,t1/2,[3],1.95 h
same,Drug metabolism,[11],Metabolite_Detected
same,inhibition at 10 µM,CYP2D6,45.4%
same,CLH,[5],14 µL/min/mg
same,inhibition at 10 µM,CYP2C9,24.4%
same,inhibition at 10 µM,CYP1A2,20%
same,"remaining at 40 min, 2 µM",[12],77%
same,Activity,HepaRG,Non-Toxic
same,inhibition at 10 µM,CYP3A4,24.3%
same,inhibition,[6],< 20%
same,Activity,T-24 [7],inactive
same,IC50,Histone deacetylase 1,5080 nM
O=C(NO)c1ccc(CN2c3ccccc3Sc3cc(Cl)nnc32)cc1,IC50,[1],18 nM
O=C(NO)c1ccc(CN2c3ccccc3Sc3ccc(C(F)(F)F)cc32)cc1,IC50,[1],25 nM
same,IC50,Histone deacetylase 1,7490 nM
CN1CCC2=C(C1)N(Cc1ccc(C(=O)NO)cc1)c1ccccc1S2,inhibition,[13],66%
same,IC50,[1],32 nM
same,IC50,Histone deacetylase 1,980 nM
O=C(CCCCCCC(=O)Nc1ccccc1)NO,Activity,MDA-MB-231 [14],Active
same,Activity,MCF7,Active
same,Activity,THP-1,Active
same,Activity,HL-60,Active
same,Activity,T-24 [15],Active
Cc1nc2c(s1)Sc1ccccc1N2Cc1ccc(C(=O)NO)cc1,IC50,[1],37 nM
O=C(NO)c1ccc(CN2c3ccccc3Sc3nccnc32)cc1,IC50,[1],17 nM
O=C(NO)c1ccc(CN2c3ccncc3Sc3ncccc32)cc1,IC50,Histone deacetylase 8,2000 nM
same,inhibition,T-24 [2],Active
same,IC50,[1],12 nM
same,inhibition,MDA-MB-231 [4],Active
same,inhibition,Huh-7,Active
same,"viability at 24 h, 100 µM",[16],80%
same,inhibition,[6],< 20%
same,Activity,T-24 [7],inactive
same,IC50,Histone deacetylase 1,3340 nM
O=C(NO)c1ccc(CN2N=C(Cl)C=C3Sc4ccccc4N=C32)cc1,IC50,[1],115 nM
O=C(NO)c1ccc(CN2c3ccccc3S(=O)(=O)c3ccccc32)cc1,Drug uptake,[9],Active
same,IC50,Histone deacetylase 1,3990 nM
Cn1c(=O)c2c(ncn2C)n(C)c1=O [CAFFEINE],t1/2,[3],6.22 h
same,CLH,[5],4 µL/min/mg
O=C(NO)c1ccc(CN2c3cccnc3Sc3cccnc32)cc1,IC50,[1],14 nM
